Columns and labels:
[1] = biological target: T1, p53 Y220C mutant protein (amino acid residues 94-293) (Homo sapiens, UniProt P04637, Y220C); test: Surface Plasmon Resonance (SPR) assay, Kd_kinetic; format: binding; settings: SPR; p53 Y220C; read-out: SPR P53 Y220C KD kinetic
T1 construct: p53 Y220C mutant protein (amino acid residues 94-293)
In short: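 Binding measured by SPR on a Biacore 8K in running buffer of 50 mM Tris pH 7.5, 100 mM NaCl, 1 mM DTT, 0.01% Brij35, 0.05% Tween-20, 1% DMSO.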

p53 Y220C = p53 Y220C (Homo sapiens, UniProt P04637, Y220C); test: Luciferase Reporter Assay (Luc), p53 response element, NClH1299 cells with inducible p53 Y220C; format: cell-based; settings: luciferase reporter, NClH1299 inducible p53 Y220C, 6 hour; for AC50: read-out: Luc P53 Y220C AC50
In short: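 24 h dox pre-induction (0.5 ug/mL), then 6 h compound; One-Glo luminescent read.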

NUGC3 p53 Y220C = test: Cell Proliferation Assay (CellTiter-Glo, CTG), NUGC3 p53 Y220C; format: cell-based; settings: Homo sapiens, NUGC-3, 120 h, NUGC3 cells, 5 days, CellTiter-Glo
In short: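 NClH1299 lines stably transduced with Tet-inducible p53 Y220C or R273H, plus NUGC3, were treated with compound for 5 days at 250-500 cells/well. IC50 derived from CellTiter-Glo luminescent signal after 10 min room-temperature incubation.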

H1299 p53 Y220C = test: Cell Proliferation Assay (CellTiter-Glo, CTG), H1299 p53 Y220C (NClH1299-inducible p53 Y220C); format: cell-based; settings: Homo sapiens, NCI-H1299, 120 h, NClH1299-inducible p53 Y220C cells, 5 days, CellTiter-Glo
In short: (§1)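 Cells seeded at 250-500 per well and exposed to compound for 5 days. Viability read by CellTiter-Glo luminescence after 10 min at room temperature; IC50 calculated. H1299 lines carry Tet-One inducible p53 mutant constructs introduced by lentiviral transduction.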

H1299 p53 R273H = test: Cell Proliferation Assay (CellTiter-Glo, CTG), H1299 p53 R273H (NClH1299-inducible p53 R273H); format: cell-based; settings: Homo sapiens, NCI-H1299, 120 h, NClH1299-inducible p53 R273H cells, 5 days, CellTiter-Glo
In short: as §1

T1 sequence (P04637 94-293, stated change not applied): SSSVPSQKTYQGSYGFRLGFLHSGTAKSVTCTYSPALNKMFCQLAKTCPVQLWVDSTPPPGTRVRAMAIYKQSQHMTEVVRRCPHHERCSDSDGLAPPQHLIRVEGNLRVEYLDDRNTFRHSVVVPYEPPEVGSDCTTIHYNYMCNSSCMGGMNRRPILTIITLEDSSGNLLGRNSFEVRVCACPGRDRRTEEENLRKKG

| Kd [1] | AC50 (p53 Y220C) | Emax (p53 Y220C) | IC50 (H1299 p53 Y220C) | IC50 (H1299 p53 R273H) | SMILES | IC50 (NUGC3 p53 Y220C) |
| --- | --- | --- | --- | --- | --- | --- |
| < 10 nM | < 750 nM | > 90% | < 750 nM | 5000 to 8000 nM | CNC(=O)c1ccc(OC)c(NCC#Cc2cn3c(N[C@@H]4CCN(C)C[C@@H]4F)cccc3c2SC(F)(F)F)c1 [Example 393] | < 750 nM |
| < 10 nM | < 750 nM | > 90% | < 750 nM | 5000 to 8000 nM | COc1cc(S(C)(=O)=O)ccc1NCC#Cc1cc2c(N[C@@H]3CCNC[C@@H]3F)cccn2c1SC(F)F [Example 394] | < 750 nM |
| < 10 nM | < 750 nM | > 90% | < 750 nM | 5000 to 8000 nM | CN1CC[C@@H](Nc2cccn3c(SC(F)(F)F)c(C#CCNc4ccc(C(=O)N5CC(C)(O)C5)cc4)cc23)[C@@H](F)C1 [Example 395] | < 750 nM |
| < 10 nM | < 750 nM | > 90% | < 750 nM | 8000 to 10000 nM | C[C@H](NC(=O)c1ccc(NCC#Cc2cc3c(N[C@@H]4CCN(C)C[C@@H]4F)cccn3c2SC(F)(F)F)cc1)[C@@H](C)O [Example 396] | < 750 nM |
| < 10 nM | < 750 nM | > 90% | < 750 nM | 5000 to 8000 nM | C[C@@H](O)CNC(=O)c1ccc(NCC#Cc2cc3c(N[C@@H]4CCNC[C@@H]4F)cccn3c2SC(F)(F)F)cc1 [Example 397] | < 750 nM |
| < 10 nM | < 750 nM | > 90% | < 750 nM | 5000 to 8000 nM | COc1cc2c(cc1NCC#Cc1cc3c(N[C@@H]4CCN(C)C[C@@H]4F)cccn3c1SC(F)(F)F)CNC2=O [Example 399] | < 750 nM |
| < 10 nM | < 750 nM | 80 to 90% | < 750 nM | ≥ 10000 nM | COc1cc(P(C)(C)=O)cnc1NCC#Cc1cc2c(N[C@@H]3CCN(C)C[C@@H]3F)cccn2c1SC(F)(F)F [Example 402, 2-(3-{[5-(dimethylphosphoryl)-3-methoxypyridin-2-yl]amino}prop-1-yn-1-yl)-N-[(3S,4R)-3-fluoro-1-methylpiperidin-4-yl]-3-[(trifluoromethyl)sulfanyl]indolizin-8-amine] | < 750 nM |
| < 10 nM | < 750 nM | > 90% | < 750 nM | ≥ 10000 nM | C[C@H](O)CNC(=O)c1ccc(NCC#Cc2cc3c(N[C@@H]4CCNC[C@@H]4F)cccn3c2SC(F)(F)F)cc1 [Example 403] | < 750 nM |
| < 10 nM | < 750 nM | > 90% | < 750 nM | 8000 to 10000 nM | COc1ccc(C(=O)NC[C@H](C)O)cc1NCC#Cc1cc2c(N[C@@H]3CCN(C)C[C@@H]3F)cccn2c1SC(F)(F)F [Example 404] | < 750 nM |
| < 10 nM | < 750 nM | > 90% | < 750 nM | ≥ 10000 nM | CNC(=O)c1ccc(NCC#Cc2cc3c(N[C@@H]4CCN(C)C[C@@H]4F)cccn3c2SC(F)(F)F)c(OC2COC2)c1 [Example 405] | < 750 nM |
| < 10 nM | < 750 nM | 80 to 90% | < 750 nM | 5000 to 8000 nM | COc1cc(C(=O)N2CC(C)(O)C2)ccc1NCC#Cc1cc2c(N[C@@H]3CCNC[C@@H]3F)cccn2c1SC(F)(F)F [Example 406, 1-(4-{[3-(8-{[(3S,4R)-3-fluoropiperidin-4-yl]amino}-3-[(trifluoromethyl)sulfanyl]indolizin-2-yl)prop-2-yn-1-yl]amino}-3-methoxybenzoyl)-3-methylazetidin-3-ol] | < 750 nM |
| < 10 nM | < 750 nM | > 90% | < 750 nM | 5000 to 8000 nM | CN1CC[C@@H](Nc2cccn3c(SC(F)(F)F)c(C#CCNc4ccc(C(=O)NC[C@H]5COCCO5)cc4)cc23)[C@@H](F)C1 [Example 407] | < 750 nM |
| < 10 nM | < 750 nM | 80 to 90% | < 750 nM | 5000 to 8000 nM | COc1cc(C(=O)NCC(C)(C)O)ccc1NCC#Cc1cc2c(N[C@@H]3CCNC[C@@H]3F)cccn2c1SC(F)(F)F [Example 408] | < 750 nM |
| < 10 nM | < 750 nM | > 90% | < 750 nM | ≥ 10000 nM | CN1CC[C@@H](Nc2cccn3c(SC(F)(F)F)c(C#CCNc4cc(C(=O)NCC5(O)CC5)ccc4OC4COC4)cc23)[C@@H](F)C1 [Example 409] | < 750 nM |
| < 10 nM | < 750 nM | > 90% | < 750 nM | ≥ 10000 nM | COc1ccc(C(=O)N[C@@H](C)[C@@H](C)O)cc1NCC#Cc1cc2c(N[C@@H]3CCN(C)C[C@@H]3F)cccn2c1SC(F)(F)F [Example 410] | < 750 nM |
| < 10 nM | < 750 nM | > 90% | < 750 nM | ≥ 10000 nM | COc1cc([S@+](C)[O-])ccc1NCC#Cc1cc2c(N[C@@H]3CCN(C)C[C@@H]3F)cccn2c1SC(F)(F)F [Example 411] | < 750 nM |
| < 10 nM | < 750 nM | > 90% | < 750 nM | ≥ 10000 nM | C[C@@H](O)CNC(=O)c1ccc(NCC#Cc2cc3c(N[C@@H]4CCN(C)C[C@@H]4F)cccn3c2SC(F)(F)F)cc1 [Example 414] | < 750 nM |
| < 10 nM | < 750 nM | 80 to 90% | 750 to 1500 nM | ≥ 10000 nM | COc1cc(P(C)(C)=O)ccc1NCC#Cc1cn2c(N[C@@H]3CCN(C)C[C@@H]3F)cccc2c1SC(F)F [Example 415] | 750 to 1500 nM |
| < 10 nM | < 750 nM | 80 to 90% | < 750 nM | 5000 to 8000 nM | COc1cc(C(=O)NC[C@@H](C)O)ccc1NCC#Cc1cc2c(N[C@@H]3CCN(C)C[C@@H]3F)cccn2c1SC(F)(F)F [Example 416, 4-{[3-(8-{[(3S,4R)-3-fluoro-1-methylpiperidin-4-yl]amino}-3-[(trifluoromethyl)sulfanyl]indolizin-2-yl)prop-2-yn-1-yl]amino}-N-[(2R)-2-hydroxypropyl]-3-methoxybenzamide] | < 750 nM |
| < 10 nM | < 750 nM | > 90% | < 750 nM | ≥ 10000 nM | COc1ccc(C(=O)NCC2(O)CC2)cc1NCC#Cc1cc2c(N[C@@H]3CCN(C)C[C@@H]3F)cccn2c1SC(F)(F)F [Example 417] | < 750 nM |
| < 10 nM | < 750 nM | > 90% | < 750 nM | ≥ 10000 nM | CN1CC[C@@H](Nc2cccn3c(SC(F)(F)F)c(C#CCNc4ccc(S(C)(=O)=O)cc4)cc23)[C@@H](F)C1 [Example 418] | < 750 nM |
| < 10 nM | < 750 nM | > 90% | < 750 nM | 5000 to 8000 nM | COc1cc(C(=O)NCC2(O)CC2)ccc1NCC#Cc1cc2c(N[C@@H]3CCN(C)C[C@@H]3F)cccn2c1SC(F)(F)F [Example 419, 4-{[3-(8-{[(3S,4R)-3-fluoro-1-methylpiperidin-4-yl]amino}-3-[(trifluoromethyl)sulfanyl]indolizin-2-yl)prop-2-yn-1-yl]amino}-N-[(1-hydroxycyclopropyl)methyl]-3-methoxybenzamide] | < 750 nM |

Source: patent US20260374766A1, “METHODS FOR TREATING CANCER” (Antares Therapeutics, Inc., priority 2022, published 2026)
